Source: patent publication US20070255062A1, “Benzoyl Amino Pyridyl Carboxylic Acid Derivatives Useful as Glucokinase (Glk) Activators” (priority 2003, published 2007)

Key:
glucokinase (GLK) = target: T1, glucokinase (GLK) (Homo sapiens, UniProt P35557); assay: Enzymatic activity of GLK (G-6-P dehydrogenase, NADP/NADPH coupled assay), activation by compounds; format: biochemical; settings: read-out: EC50 (activating activity for glucokinase)
T1 construct: 6-His (N); made in house; host or cells: E. coli BL21 (vector pTB375NBSE)
T1 sequence (P35557 1-466 isoform P35557-2): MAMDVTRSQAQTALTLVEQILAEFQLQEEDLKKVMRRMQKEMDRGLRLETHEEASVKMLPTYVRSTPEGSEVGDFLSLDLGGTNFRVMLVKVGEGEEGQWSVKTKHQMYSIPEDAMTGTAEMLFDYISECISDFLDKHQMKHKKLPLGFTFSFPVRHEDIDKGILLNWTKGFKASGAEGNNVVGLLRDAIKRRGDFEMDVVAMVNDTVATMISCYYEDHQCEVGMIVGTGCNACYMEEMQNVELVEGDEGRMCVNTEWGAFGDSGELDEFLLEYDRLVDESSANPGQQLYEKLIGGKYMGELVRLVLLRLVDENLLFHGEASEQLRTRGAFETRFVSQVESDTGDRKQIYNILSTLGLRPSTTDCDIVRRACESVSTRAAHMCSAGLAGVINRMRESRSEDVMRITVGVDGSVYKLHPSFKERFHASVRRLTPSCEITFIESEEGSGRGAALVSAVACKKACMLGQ
Experimental: (1) Enzymatic activity of GLK may be measured by incubating GLK, ATP and glucose. The rate of product formation may be determined by coupling the assay to a G-6-P dehydrogenase, NADP/NADPH system and measuring the linear increase in optical density at 340 nm (atschinsky et al 1993). Activation of GLK by compounds can be assessed using this assay in the presence or absence of GLKRP (GLK regulatory protein) as described in Brocklehurst et al (Diabetes 2004, 53, 535-541).
GLK was expressed from the vector pTB375NBSE in E.coli BL21 cells, producing a recombinant protein containing a 6-His tag immediately adjacent to the N-terminal methionine. Alternatively, another suitable vector is pET21(+)DNA, Novagen, Cat number 697703. The 6-His tag was used to allow purification of the recombinant protein on a column packed with nickel-nitrilotriacetic acid agarose purchased from Qiagen (cat no 30250).

[1] = Plasma protein binding by equilibrium dialysis; format: in vitro ADME; settings: rat, 18 hours at 37° C., plasma vs isotonic phosphate buffer pH 7.4, read-out: % free in plasma
Experimental: Measurements of Plasma Protein Binding of Compounds
The plasma protein binding of compounds was measured using the equilibrium dialysis technique (W. Lindner et al, J. Chromatography, 1996, 677, 1-28). Compound was dialysed at a concentration of 20 μM for 18 hours at 37° C. with plasma and isotonic phosphate buffer pH 7.4 (1 ml of each in the dialysis cell). A Spectrum® 20-cell equilibrium dialyser was used together with Teflon, semi-micro dialysis cells and Spectra/Por®2 membrane discs with a molecular weight cut off 12-14000 Dalton, 47 mm (supplied by PerBio Science UK Ltd, Tattenhall, Cheshire). Plasma and buffer samples are removed following dialysis and analysed using HPLCUV/MS (high performance liquid chromatography with UV and mass spec detection) to give the % free level in plasma.

[2] = Plasma levels following oral administration to rats; format: in vivo; settings: rat, oral gavage, normalised dose of 1 mg of compound per kilogram of rat body weight
Experimental: Measurement of Plasma Levels and Plasma Protein Binding Following Oral Administration to Rats
Planetary Milled compounds [15 mins, 500 rpm, 5 Zirconium Balls, in a Puluerisette 7 Mill (Glen Creston Ltd, Stanmore, Middlesex, UK)] were suspended in 0.5% HPMC Tween and dosed to High Fat Fed (Research Diets, D12451, ad lib feeding 14 days) Female Alderley Park Zucker or Alderley Park Wistar rats at rate of 5 mls/kg, at doses between 0.3 and 10 mg/kg by oral gavage.
Samples of plasma were obtained either by conscious blood sampling or terminal blood sampling as follows:
Conscious blood sampling (for compound level or blood chemistry)—Intravenous blood samples were taken from tail vein using 600 μL Starstedt Multivette (EDTA) and 22 G needle at the required time point. […]
The reconstituted samples were then analysed using high performance liquid chromatography with tandem mass spectrometry detection (HPLC-MS-MS)”. […]
The concentration of test samples was determined from the ratio of the peak height of the test sample to the peak height of the internal standard. The concentration of the test sample was calculated with reference to a standard curve relating the ratio to the concentration prepared by using known concentrations of test sample added to samples of rat plasma using (3-isopropoxy-5-benzyoxy-benzoyl)amino pyridine 3-carboxylic acid as an internal standard, treated as described above.

[3] = Estimation of plasma half-life; format: in vivo; settings: rat, typically determined following intravenous administration, semilogarithmic plot, read-out: t½ (half life in plasma) (converted)
From the text: Estimation of Plasma Half-Life
The plasma half-life is the time taken for the concentration of compound in the plasma to decline to half of its original value. This is typically determined following intravenous administration of the test compound, followed by measurement of the compound concentrations in plasma samples as described above. The plasma half-life is estimated from a semilogarithmic plot, plotting the log of the plasma concentration (lnCp) against sample time (t, linear). The apparent first-order elimination rate constant, k, is equal to the slope of the line, and the elimination half-life (t1/2) is […] (Gibaldi, M and Perrier, D, 1975 Pharmacokinetics, Marcel Dekker, New York): [formula]

Which EC50 (glucokinase (GLK)) does the source give for `COC[C@H](C)Oc1cc(Oc2cccc(C)c2)cc(C(=O)Nc2ccc(C(=O)O)cn2)c1` [Example 1, 6-[3-{(1S)-1-methyl-2-methoxy-ethoxy}-5-{3-methylphenoxy}phenylcarbonylamino]pyridine-3-carboxylic acid] here?
The EC50 was 110 nM.

What about the fraction unbound at 18 h, 20 μM [1] of the same molecule?
The fraction unbound at 18 h, 20 μM was 0.0076.

And the “Peak Blood levels (including both bound and free)” value [2]?
The value was 2.06 µM.

And the half-life [3]?
The half-life was 6.4 h.
